Structures can show the parent of a compound that is named as a salt. Where two headings read alike, the source gives them in different places.
Columns and labels:
[1] = test system: mice; assay: PBQ Writhing Assay (analgesia in mice); assay type: in vivo, mouse (Charles River male albino mice); details: for responders at 30 mg/kg: 0.5 h, 30 mg per kg, 30 min before PBQ, fraction out of 9 or 10 mice; for rank order of potency in the Writhing Assay: more potent compounds tested
From the text: The Writhing Assay is one of the most widely-used experimental procedures for measuring the analgesic activity of different narcotic and nonnarcotic analgesic agents, and involves the continuous, chemically-induced pain of visceral origin to an animal, such as a mouse or rat. [Gyires et al., Arch. int. Pharmacodyn, 267, 131-140 (1984); C. Vander Wende et al., Fed. Proc., 15, 494 (1956); Koster et al., Fed. Proc., 18, 412 (1959); and Witken et al., J. Pharmacol. exp. Ther., 133, 400-408 (1961).] Chemicals which may be used to induce this pain include phenylbenzoquinone (PBQ) and acetic acid. As a result of the chemical irritation to the animal, a characteristic stretching and writhing of the animal (dorsiflexion of the animal's back, extension of its hindlimbs and the strong contraction of its abdominal musculature) will generally occur. […] Drugs which reduce the number of writhes of the animal appear to restore the normal nociceptive threshold of the animal.
Charles River male albino mice, weighing 20 to 30 grams were used in this assay.
Thirty minutes after subcutaneous or intragastric administration to ten mice of 30 mg per kilogram of body weight of a compound of the present invention ("test compound"), […] per 10 g of body weight of a 0.025% w/v solution of PBQ was injected intraperitoneally into each mouse. Ten mice which were given saline in place of a test compound of the invention were used as a control group.
Five minutes later, each mouse was individually placed into a glass beaker for observation, and the number of writhes occurring during the following tenminute period was counted.
A test compound was considered to have produced analgesia in a mouse if, in accordance with the conditions set forth above, and under the test criteria employed for this assay, after the administration of 30 mg per kilogram of body weight of a compound of the present invention to the mouse, the number of writhes elicited by a mouse injected with PBQ was equal to, or less than, one-half the median number of writhes recorded for the saline-treated control group of mice that day, as described by Taber in "Predictive Value of Analgesic Assays in Mice and Rats," Advances in Biochemical Psychopharmacology, 8, 191 (1974).
The standard initial screening dose of a test compound employed in this assay was […] for both routes of administration. If this initial screening dose of the test compound produced analgesia in seven of ten mice, then the effect of additional doses of the test compound on the writhing response was evaluated, and then the ED50 dose was generally calculated. (The slopes of the dose-response curves for all test compounds analyzed were compared as described by Taltarida and Murray, Manual of Pharmacologic Calculations, Page 11 (Springer Verlag, New York, 1981)).
The results for the particular compounds of the present invention analyzed in this assay, and discussed in the examples identified below which correspond thereto, are presented in Table I hereinbelow under the heading "PBQ WRITHING ASSAY". The fractions indicate the number of mice out of 9 or 10 in which the initial screening dose of a test compound produced analgesia. The numbers which are not fractions represent ED50 doses.

[2] = target: T1, prostaglandin E2-induced contractions of segments of guinea pig ileum (Cavia porcellus, UniProt A0A286XHJ6); assay: Prostaglandin (PGE) Antagonism Assay, inhibition of prostaglandin E2-induced contractions of guinea pig ileum segments; set-up: species or system guinea pig (male albino); details: 37° C., Schild plot, read-out: PGE ANTAGONISM IN GUINEA PIG ILEUM (pA2) (converted)
T1 construct: Segments of ileum about 2 cm long were then cut and mounted in a 10-mL tissue bath; from tissue; host or cells: ileum segments of male albino guinea pigs
T1 sequence (A0A286XHJ6 1-405): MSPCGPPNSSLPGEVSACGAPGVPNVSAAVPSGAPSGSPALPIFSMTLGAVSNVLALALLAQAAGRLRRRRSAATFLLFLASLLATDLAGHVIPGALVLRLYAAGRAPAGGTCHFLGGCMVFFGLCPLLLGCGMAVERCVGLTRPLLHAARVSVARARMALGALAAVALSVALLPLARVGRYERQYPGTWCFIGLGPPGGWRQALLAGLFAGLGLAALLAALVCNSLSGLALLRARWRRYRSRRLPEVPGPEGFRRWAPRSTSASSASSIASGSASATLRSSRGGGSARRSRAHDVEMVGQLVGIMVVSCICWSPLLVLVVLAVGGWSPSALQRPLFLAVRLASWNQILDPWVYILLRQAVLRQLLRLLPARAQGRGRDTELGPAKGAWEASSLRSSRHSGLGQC
Experimental: In order to determine the effectiveness of several of the compounds of the present invention ("test compounds") as prostaglandin E2 antagonists,a prostaglandin antagonism assay was conducted, as described below, to determine the ability of these compounds to inhibit prostaglandin E2 -induced contractions of segments of guinea pig ileum.
Male albino guinea pigs weighing 200 to 500 grams were sacrificed by cervical dislocation.
The ileums were then quickly removed from the guinea pigs and placed in a modified Tyrode solution, a solution which is known to those of skill in the art, containing one-half of the usual amount of magnesium ions.
Segments of ileum about 2 cm long were then cut and mounted in a 10-mL tissue bath containing the modified Tyrode solution. The solution was maintained at 37° C. and aerated with a gaseous mixture of 95% oxygen and 5% carbon dioxide.
Submaximal contractions of the ileum segments were then generated by injecting prostaglandin E2 into the bath, and detected isotonically. Data for a control prostaglandin E2 dose response curve plotting concentration of prostaglandin E2 versus number of contractions generated was then obtained by experimentally adjusting the dose of the prostaglandin E2 being injected into the tissue bath, in a manner known by those of skill in the art.
Solutions or suspensions containing an initial amount of a test compound in modified Tyrode solution ("test solutions/suspensions") were then separately substituted for the tissue bath. Each test solution/suspension was then kept in constant contact with the ileum tissue, except for brief periods to drain the bath in preparation for rinsing with fresh test solution/suspension. Different doses of prostaglandin E2 were again injected into the test solutions/suspensions.
A second prostaglandin E2 dose response curve was then generated for PGE2 in the presence of a test compound.
A dose ratio of EC50 doses (that dose of a compound or drug which is necessary to elicit a 50% maximal biological response and, thus, which is necessary to elicit a 50% reduction in the contractions of %he guinea pig ileum segments in this assay) was then calculated from the results of each test in a manner known by those of skill in the art. […]
If the initial concentration of a test compound was determined to be "active," then varying concentrations of the test compound were then assayed.
The pA2 value (a statistical constant which is a common measure of expressing the potency of a particular drug as a competitive antagonist) was then calculated for each test compound by schild plot calculations, as described by H. O. Schild, "pA A New , Scale for the Measurement of Drug Antagonism, " Br. J. Pharmacol, 2, 189 (1947), according to the following mathematical formula: […]

[3] = test system: isolated smooth muscle preparations; details: cited from earlier work
[4] = test system: urethane-anesthetized rats; details: cited from earlier work
[5] = Mus musculus, po, intragastric, mice, read-out: PBQ WRITHING ASSAY, No. Out of 10 (mice in which the initial screening dose produced analgesia), I.G. (converted)
[6] = Mus musculus, sc, subcutaneous, mice, read-out: PBQ WRITHING ASSAY, No. Out of 10 (mice in which the initial screening dose produced analgesia), S.C. (converted)

| Kb [2] [nM] | SMILES | responders at 30 mg/kg [1, 5] [%] | responders at 30 mg/kg [1, 6] [%] | other results |
| --- | --- | --- | --- | --- |
| – | CCCCC(C)(C/C=C\C(=O)N1Cc2ccccc2Oc2ccc(Cl)cc21)O[Si](C)(C)C (centres unmarked) [Example 4, 8-chloro-10,11-dihydro-10-[5-methyl-1-oxo-5-[(trimethylsilyl)oxy]-2Z-nonenyl]-dibenz[b,f][1,4]oxazepine] | 50 | 80 | – |
| – | CCCCC(C)(C/C=C/C(=O)N1Cc2ccccc2Oc2ccc(Cl)cc21)O[Si](C)(C)C (centres unmarked) [Example 5, 8-chloro-10,11-dihydro-10-[5-methyl-1-oxo-5-[(trimethylsilyl)oxy]-2E-nonenyl]-dibenz[b,f][1,4]oxazepine] | 30 | 60 | – |
| 166 | CCCCC(C)(O)C/C=C/C(=O)N1Cc2ccccc2Oc2ccc(Cl)cc21 (centres unmarked) [Example 6, 8-chloro-10,11-dihydro-10-(5-hydroxy-5-methyl-1-oxo-2E-nonenyl)dibenz[b,f][1,4]oxazepine] | 40 | 40 | – |
| – | CCCCCC(C)(/C=C/C(=O)N1Cc2ccccc2Oc2ccc(Cl)cc21)O[Si](C)(C)C (centres unmarked) [Example 8, 8-chloro-10,11-dihydro-10-[4-methyl-1-oxo-4-[(trimethylsilyl)oxy]-2E-nonenyl]dibenz-[b,f][1,4]oxazepine] | 60 | 40 | – |
| 617 | CCCCCC(C)(O)/C=C/C(=O)N1Cc2ccccc2Oc2ccc(Cl)cc21 (centres unmarked) [Example 9, 8-chloro-10,11-dihydro-10-(4-hydroxy-4-methyl-1-oxo-2E-nonenyl)dibenz[b,f][1,4]oxazepine] | 50 | 90 | – |
| 214 | CCCCCC(O)/C=C/C(=O)N1Cc2ccccc2Oc2ccc(Cl)cc21 (centres unmarked) [Example 11] | 20 | 30 | – |
| – | CCCCCC(/C=C/C(=O)N1Cc2ccccc2Oc2ccc(Cl)cc21)OC(=O)CN (centres unmarked) [Example 12, glycine, 1-[3-(8-chloro-10,11-dihydrodibenz-[b,f][1,4]oxazepin-10-yl)-3-oxo-1E-propenyl]-hexyl ester, monohydrochloride] | 55.6 | 30 | rank order of potency in the Writhing Assay [1]: Example 17 > Example 9 > Example 4 > Example 8 > Example 5 > Example 12 |
| – | CCCCCC(=O)/C=C/C(=O)N1Cc2ccccc2Oc2ccc(Cl)cc21 [Example 13, 8-chloro-10,11-dihydro-10-(1,4-dioxo-2E-nonenyl)dibenz[b,f][1,4]oxazepin] | 10 | 22.2 | – |
| – | CCCCCC/C=C/C(=O)N1Cc2ccccc2Oc2ccc(Cl)cc21 [Example 14, 8-chloro-10,11-dihydro-10-(1-oxo-2E-nonenyl)dibenz[b,f][1,4]oxazepine] | 10 | 10 | – |
| – | CCCCCC(O)C#CC(=O)N1Cc2ccccc2Oc2ccc(Cl)cc21 (centres unmarked) [Example 15, 8-chloro-10,11-dihydro-10-(4-hydroxy-1-oxo-2-nonynyl)dibenz[b,f][1,4]oxazepine] | 10 | 30 | – |
| 102 | O=C(CCC(=O)N1Cc2ccccc2Oc2ccc(Cl)cc21)CCc1ccncc1 [Example 17, 8-chloro-10-[1,4-dioxo-6-(4-pyridinyl)hexyl]-10,11-dihydrodibenz[b,f][1,4]-oxazepine, monohydrochloride] | – | – | ED50 ([1]; Mus musculus, po, intragastric, mice, ED50 dose, read-out: PBQ WRITHING ASSAY, ED50, I.G.): 5.4 mg/kg; most potent compound tested in the Writhing Assay ([1]; in words): the most potent compound of the invention tested in this assay; rank order of potency in the Writhing Assay [1]: Example 17 > Example 9 > Example 4 > Example 8 > Example 5 > Example 12 |
| – | O=C(Cc1ccccc1)NNC(=O)N1Cc2ccccc2Oc2ccc(Cl)cc21 [SC-18637] | – | – | inhibition of the stimulant actions of prostaglandins [3]: inhibit the stimulant actions of prostaglandins on isolated smooth muscle preparations |
| – | CC(=O)NNC(=O)N1Cc2ccccc2Oc2ccc(Cl)cc21 [SC-19220] | – | – | inhibition of the stimulant actions of prostaglandins [3]: inhibit the stimulant actions of prostaglandins on isolated smooth muscle preparations; bladder capacity [4]: increased the bladder capacity; voiding efficiency of micturition [4]: reduced the voiding efficiency of micturition |
